Reference: patent US20230265151A1, “GIP/GLP1 CO-AGONIST COMPOUNDS” (priority 2020, published 2023)
Read-outs that look alike come from different tables or passages of the source.

How the values were obtained:
Type in all cases: cell-based
hGLP-1R = hGLP-1R (Homo sapiens, UniProt P43220); assay: Functional cAMP formation (HTRF) in HEK-293 clonal cells expressing hGLP-1R, 0.1% bovine casein, without or with 1.0% human serum albumin; set-up: expressed in transfected cells; details: for EC50: hGLP-1R EC50, nM (SEM, n), cAMP, 37° C., 0.1% bovine casein (no human serum albumin), geometric mean
Sequence of hGLP-1R (P43220 24-463): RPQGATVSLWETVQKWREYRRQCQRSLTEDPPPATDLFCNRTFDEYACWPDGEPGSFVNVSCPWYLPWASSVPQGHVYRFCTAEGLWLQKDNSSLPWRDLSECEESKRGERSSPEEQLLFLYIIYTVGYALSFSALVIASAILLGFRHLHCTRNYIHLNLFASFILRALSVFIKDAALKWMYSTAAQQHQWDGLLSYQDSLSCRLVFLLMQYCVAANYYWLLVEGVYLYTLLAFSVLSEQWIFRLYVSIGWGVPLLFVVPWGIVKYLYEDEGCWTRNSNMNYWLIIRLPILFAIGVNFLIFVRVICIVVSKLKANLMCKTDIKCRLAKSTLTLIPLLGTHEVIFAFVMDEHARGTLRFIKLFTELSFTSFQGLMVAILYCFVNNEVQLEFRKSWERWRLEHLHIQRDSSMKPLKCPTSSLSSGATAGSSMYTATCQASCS
How it was run: (§1)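 Cells were stimulated with peptide for 30 min at 37° C, then intracellular cAMP was measured by competitive HTRF (665/620 nm ratio) and converted to nM using a cAMP standard curve. Relative EC50 and Emax came from four-parameter logistic fits of percent maximal response against peptide concentration.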

hGCGR = molecular target: T1, hGCGR (Homo sapiens, UniProt P47871); assay: Functional cAMP formation (HTRF) in HEK-293 clonal cells expressing hGCGR, 0.1% bovine casein, without or with 1.0% human serum albumin; details: hGCGR EC50, nM (SEM, n), cAMP, 37° C.
T1 construct: expressed in transfected cells
T1 sequence (P47871 26-477): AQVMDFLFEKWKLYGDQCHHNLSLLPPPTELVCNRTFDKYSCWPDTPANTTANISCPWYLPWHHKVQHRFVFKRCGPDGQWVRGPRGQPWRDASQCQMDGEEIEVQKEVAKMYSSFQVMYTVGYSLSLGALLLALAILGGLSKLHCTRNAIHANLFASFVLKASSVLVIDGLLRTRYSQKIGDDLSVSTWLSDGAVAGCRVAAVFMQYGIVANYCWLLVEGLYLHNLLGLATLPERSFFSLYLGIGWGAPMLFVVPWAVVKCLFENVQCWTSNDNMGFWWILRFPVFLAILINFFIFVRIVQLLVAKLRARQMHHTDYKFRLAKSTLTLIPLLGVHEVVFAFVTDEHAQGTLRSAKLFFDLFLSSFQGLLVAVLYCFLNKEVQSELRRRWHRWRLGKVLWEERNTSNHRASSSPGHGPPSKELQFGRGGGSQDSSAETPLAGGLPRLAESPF
How it was run: as §1

hGIPR = molecular target: T2, hGIPR (Homo sapiens, UniProt P48546); assay: Functional cAMP formation (HTRF) in HEK-293 clonal cells expressing hGIPR, 0.1% bovine casein, without or with 1.0% human serum albumin; details: for Emax: percent of maximal response to GIP(1-42)NH2; for EC50: hGIPR EC50, nM (SEM, n), cAMP, 37° C.
T2 construct: expressed in transfected cells
T2 sequence (P48546 22-466): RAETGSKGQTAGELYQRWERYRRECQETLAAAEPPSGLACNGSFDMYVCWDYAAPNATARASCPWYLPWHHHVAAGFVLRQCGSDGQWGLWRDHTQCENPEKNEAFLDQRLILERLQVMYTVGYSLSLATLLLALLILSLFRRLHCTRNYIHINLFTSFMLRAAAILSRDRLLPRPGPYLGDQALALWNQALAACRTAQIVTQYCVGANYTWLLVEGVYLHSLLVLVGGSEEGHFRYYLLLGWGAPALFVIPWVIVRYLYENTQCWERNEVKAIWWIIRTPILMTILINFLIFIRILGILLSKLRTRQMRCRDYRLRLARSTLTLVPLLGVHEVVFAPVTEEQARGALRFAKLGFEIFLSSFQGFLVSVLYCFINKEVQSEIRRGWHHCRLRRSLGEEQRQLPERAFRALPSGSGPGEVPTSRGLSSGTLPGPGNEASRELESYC
How it was run: as §1

[1] = 0.1% bovine casein (no human serum albumin), geometric mean
[2] = 0.1% bovine casein and 1.0% human serum albumin, geometric mean (SEM, n)
[3] = HEK293, read-out: hGIPR Emax, % ± SEM, cAMP, 37° C., 0.1% bovine casein and 1.0% human serum albumin
[4] = HEK293, read-out: hGIPR Emax, % ± SEM, cAMP, 37° C., 0.1% bovine casein, arithmetic mean

| Structure (SMILES) | Emax (hGLP-1R; HEK293, read-out: hGLP-1R Emax, % ± SEM, cAMP, 37° C., 0.1% bovine casein, percent of maximal response to GLP-1(7-36)NH2, arithmetic mean) | EC50 (hGLP-1R) | EC50 (hGCGR; [1]) | EC50 (hGCGR; [2]) | Emax (hGIPR; [3]) | Emax (hGIPR; [4]) | EC50 (hGIPR; [1]) | EC50 (hGIPR; [2]) |
| --- | --- | --- | --- | --- | --- | --- | --- | --- |
| CC[C@H](C)[C@H](NC(=O)[C@H](CC(C)C)NC(=O)[C@](C)(Cc1ccc(O)cc1)NC(=O)[C@@H](CCC(=O)O)NC(=O)[C@@H](NC(=O)[C@H](Cc1ccccc1)NC(=O)[C@H](CCCCNC(=O)COCCOCCNC(=O)CC[C@H](NC(=O)CCCCCCCCCOc1ccc(C(=O)O)cc1)C(=O)O)NC(=O)C(C)(C)NC(=O)[C@H](CCC(N)=O)NC(=O)[C@H](C)NC(=O)[C@H](CCCCNC(=O)COCCOCCNC(=O)CC[C@H](NC(=O)CCCCCCCCCOc1ccc(C(=O)O)cc1)C(=O)O)NC(=O)[C@H](CCCN)NC(=O)[C@H](CC(=O)O)NC(=O)[C@H](CC(C)C)NC(=O)[C@](C)(CC(C)C)NC(=O)[C@@H](NC(=O)C(C)(C)NC(=O)[C@@H](NC(=O)[C@H](CC(=O)O)NC(=O)[C@H](CO)NC(=O)[C@@H](NC(=O)[C@](C)(Cc1ccccc1F)NC(=O)[C@@H](NC(=O)CNC(=O)[C@H](CCC(=O)O)NC(=O)C(C)(C)NC(=O)[C@@H](N)Cc1ccc(O)cc1)[C@@H](C)O)[C@@H](C)O)C(C)C)[C@@H](C)CC)[C@@H](C)CC)C(=O)N[C@@H](CCC(=O)O)C(=O)NCC(=O)NCC(=O)N1CCC[C@H]1C(=O)N[C@@H](CO)C(=O)N[C@@H](CO)C(=O)NCC(=O)N[C@@H](C)C(=O)N1CCC[C@H]1C(=O)N1CCC[C@H]1C(=O)N1CCC[C@H]1C(=O)N[C@@H](CO)C(N)=O [Example 378] | 98.9% | 0.166 nM | > 9950 nM | > 9950 nM | 81.2% | 93.5% | 0.0132 nM |  |
| CC[C@H](C)[C@H](NC(=O)[C@H](CC(C)C)NC(=O)[C@](C)(Cc1ccc(O)cc1)NC(=O)[C@@H](CCC(=O)O)NC(=O)[C@@H](NC(=O)[C@H](Cc1ccccc1)NC(=O)[C@H](CCC(=O)O)NC(=O)C(C)(C)NC(=O)[C@H](CCC(N)=O)NC(=O)[C@H](C)NC(=O)[C@H](CCCCNC(=O)COCCOCCNC(=O)CC[C@H](NC(=O)CCCCCCCCCOc1ccc(C(=O)O)cc1)C(=O)O)NC(=O)[C@H](CCCN)NC(=O)[C@H](CC(=O)O)NC(=O)[C@H](CC(C)C)NC(=O)[C@](C)(CC(C)C)NC(=O)[C@@H](NC(=O)C(C)(C)NC(=O)[C@@H](NC(=O)[C@H](CC(=O)O)NC(=O)[C@H](CO)NC(=O)[C@@H](NC(=O)[C@](C)(Cc1ccccc1F)NC(=O)[C@@H](NC(=O)CNC(=O)[C@H](CCC(=O)O)NC(=O)C(C)(C)NC(=O)[C@@H](N)Cc1ccc(O)cc1)[C@@H](C)O)[C@@H](C)O)C(C)C)[C@@H](C)CC)[C@@H](C)CC)C(=O)N[C@@H](CCCCNC(=O)COCCOCCNC(=O)CC[C@H](NC(=O)CCCCCCCCCOc1ccc(C(=O)O)cc1)C(=O)O)C(=O)NCC(=O)NCC(=O)N1CCC[C@H]1C(=O)N[C@@H](CO)C(=O)N[C@@H](CO)C(=O)NCC(=O)N[C@@H](C)C(=O)N1CCC[C@H]1C(=O)N1CCC[C@H]1C(=O)N1CCC[C@H]1C(=O)N[C@@H](CO)C(N)=O [Example 379] |  | 0.171 nM | > 9950 nM | > 9950 nM | 90% | 97.5% | 0.0167 nM | 11.6 nM |
